Assay: xn = mol fraction of the nth substance listed
Settings: 100 kPa, Liquid; for viscosity: Capillary tube (Ostwald / Ubbelohde) method; for mass density: Vibrating tube method

O=C1CCCO1 [γ-butyrolactone] + CCn1cc[n+](C)c1.O=S(=O)([N-]S(=O)(=O)C(F)(F)F)C(F)(F)F
Settings | mass density [kg/m3] | viscosity [mPa·s]
293.15 K, x2 = 0 | 1129.49 | 1.86
293.15 K, x2 = 0.05 | 1189.18 | 2.57
293.15 K, x2 = 0.0995 | – | 3.12
293.15 K, x2 = 0.0996 | 1236.95 | –
293.15 K, x2 = 0.1502 | 1277.22 | 3.83
293.15 K, x2 = 0.2006 | 1310.83 | 4.63
293.15 K, x2 = 0.3 | – | 6.64
293.15 K, x2 = 0.3001 | 1363.28 | –
293.15 K, x2 = 0.4 | – | 9.2
293.15 K, x2 = 0.4021 | 1403.82 | –
293.15 K, x2 = 0.4899 | – | 11.95
293.15 K, x2 = 0.4992 | 1434.01 | –
293.15 K, x2 = 0.6103 | 1461.49 | 16.41
293.15 K, x2 = 0.6912 | 1478 | –
293.15 K, x2 = 0.6995 | – | 20.33
293.15 K, x2 = 0.7817 | 1493.78 | –
293.15 K, x2 = 0.7927 | – | 24.88
293.15 K, x2 = 0.8991 | 1510.97 | 30.67
293.15 K, x2 = 0.9532 | – | 34.26
298.15 K, x2 = 0 | 1124.59 | 1.71
298.15 K, x2 = 0.05 | 1184.22 | 2.41
298.15 K, x2 = 0.0995 | – | 2.94
298.15 K, x2 = 0.0996 | 1231.94 | –
298.15 K, x2 = 0.1502 | 1272.16 | 3.61
298.15 K, x2 = 0.2006 | 1305.75 | 4.35
298.15 K, x2 = 0.3 | – | 6.16
298.15 K, x2 = 0.3001 | 1358.16 | –
298.15 K, x2 = 0.4 | – | 8.37
298.15 K, x2 = 0.4021 | 1398.7 | –
298.15 K, x2 = 0.4899 | – | 10.72
298.15 K, x2 = 0.4992 | 1428.88 | –
298.15 K, x2 = 0.6103 | 1456.36 | 14.47
298.15 K, x2 = 0.6912 | 1472.86 | –
298.15 K, x2 = 0.6995 | – | 17.71
298.15 K, x2 = 0.7817 | 1488.64 | –
298.15 K, x2 = 0.7927 | – | 21.48
298.15 K, x2 = 0.8991 | 1505.84 | 26.32
298.15 K, x2 = 0.9532 | – | 29.01
303.15 K, x2 = 0 | 1119.68 | 1.58
303.15 K, x2 = 0.05 | 1179.23 | 2.24
303.15 K, x2 = 0.0995 | – | 2.71
303.15 K, x2 = 0.0996 | 1226.88 | –
303.15 K, x2 = 0.1502 | 1267.09 | 3.3
303.15 K, x2 = 0.2006 | 1300.66 | 3.97
303.15 K, x2 = 0.3 | – | 5.57
303.15 K, x2 = 0.3001 | 1353.03 | –
303.15 K, x2 = 0.4 | – | 7.49
303.15 K, x2 = 0.4021 | 1393.55 | –
303.15 K, x2 = 0.4899 | – | 9.49
303.15 K, x2 = 0.4992 | 1423.73 | –
303.15 K, x2 = 0.6103 | 1451.19 | 12.66
303.15 K, x2 = 0.6912 | 1467.67 | –
303.15 K, x2 = 0.6995 | – | 15.38
303.15 K, x2 = 0.7817 | 1483.46 | –
303.15 K, x2 = 0.7927 | – | 18.53
303.15 K, x2 = 0.8991 | 1500.66 | 22.48
303.15 K, x2 = 0.9532 | – | 24.66
308.15 K, x2 = 0 | 1114.78 | 1.47
308.15 K, x2 = 0.05 | 1174.26 | 2.07
308.15 K, x2 = 0.0995 | – | 2.48
308.15 K, x2 = 0.0996 | 1221.85 | –
308.15 K, x2 = 0.1502 | 1262.03 | 3.03
308.15 K, x2 = 0.2006 | 1295.56 | 3.66
308.15 K, x2 = 0.3 | – | 5.09
308.15 K, x2 = 0.3001 | 1347.9 | –
308.15 K, x2 = 0.4 | – | 6.72
308.15 K, x2 = 0.4021 | 1388.4 | –
308.15 K, x2 = 0.4899 | – | 8.39
308.15 K, x2 = 0.4992 | 1418.56 | –
308.15 K, x2 = 0.6103 | 1446.01 | 11.08
308.15 K, x2 = 0.6912 | 1462.49 | –
308.15 K, x2 = 0.6995 | – | 13.34
308.15 K, x2 = 0.7817 | 1478.28 | –
308.15 K, x2 = 0.7927 | – | 15.98
308.15 K, x2 = 0.8991 | 1495.47 | 19.26
308.15 K, x2 = 0.9532 | – | 21.15
313.15 K, x2 = 0 | 1109.87 | 1.37
313.15 K, x2 = 0.05 | 1169.29 | 1.92
313.15 K, x2 = 0.0995 | – | 2.32
313.15 K, x2 = 0.0996 | 1216.89 | –
313.15 K, x2 = 0.1502 | 1257.03 | 2.81
313.15 K, x2 = 0.2006 | 1290.56 | 3.37
313.15 K, x2 = 0.3 | – | 4.63
313.15 K, x2 = 0.3001 | 1342.87 | –
313.15 K, x2 = 0.4 | – | 6.09
313.15 K, x2 = 0.4021 | 1383.33 | –
313.15 K, x2 = 0.4899 | – | 7.55
313.15 K, x2 = 0.4992 | 1413.46 | –
313.15 K, x2 = 0.6103 | 1440.89 | 9.84
313.15 K, x2 = 0.6912 | 1457.37 | –
313.15 K, x2 = 0.6995 | – | 11.77
313.15 K, x2 = 0.7817 | 1473.14 | –
313.15 K, x2 = 0.7927 | – | 13.93
313.15 K, x2 = 0.8991 | 1490.3 | 16.67
313.15 K, x2 = 0.9532 | – | 18.26
318.15 K, x2 = 0 | 1104.96 | 1.28
318.15 K, x2 = 0.05 | 1164.33 | 1.76
318.15 K, x2 = 0.0995 | – | 2.12
318.15 K, x2 = 0.0996 | 1211.89 | –
318.15 K, x2 = 0.1502 | 1252 | 2.57
318.15 K, x2 = 0.2006 | 1285.51 | 3.07
318.15 K, x2 = 0.3 | – | 4.15
318.15 K, x2 = 0.3001 | 1337.8 | –
318.15 K, x2 = 0.4 | – | 5.46
318.15 K, x2 = 0.4021 | 1378.25 | –
318.15 K, x2 = 0.4899 | – | 6.65
318.15 K, x2 = 0.4992 | 1408.36 | –
318.15 K, x2 = 0.6103 | 1435.77 | 8.6
318.15 K, x2 = 0.6912 | 1452.23 | –
318.15 K, x2 = 0.6995 | – | 10.2
318.15 K, x2 = 0.7817 | 1467.99 | –
318.15 K, x2 = 0.7927 | – | 12.07
318.15 K, x2 = 0.8991 | 1485.13 | 14.42
318.15 K, x2 = 0.9532 | – | 15.79
323.15 K, x2 = 0 | 1100.05 | 1.2
323.15 K, x2 = 0.05 | 1159.37 | 1.66
323.15 K, x2 = 0.0995 | – | 2.02
323.15 K, x2 = 0.0996 | 1206.9 | –
323.15 K, x2 = 0.1502 | 1247.02 | 2.42
323.15 K, x2 = 0.2006 | 1280.5 | 2.89
323.15 K, x2 = 0.3 | – | 3.89
323.15 K, x2 = 0.3001 | 1332.77 | –
323.15 K, x2 = 0.4 | – | 4.97
323.15 K, x2 = 0.4021 | 1373.17 | –
323.15 K, x2 = 0.4899 | – | 6.15
323.15 K, x2 = 0.4992 | 1403.26 | –
323.15 K, x2 = 0.6103 | 1430.64 | 7.81
323.15 K, x2 = 0.6912 | 1447.09 | –
323.15 K, x2 = 0.6995 | – | 9.19
323.15 K, x2 = 0.7817 | 1462.82 | –
323.15 K, x2 = 0.7927 | – | 10.76
323.15 K, x2 = 0.8991 | 1479.92 | 12.78
323.15 K, x2 = 0.9532 | – | 13.93

Source: the NIST ThermoML archive (doi:10.1016/j.jct.2016.03.034)
